Laboratory results from patent US10479780B2, “Aminopyrazole derivatives” (Chugai Seiyaku Kabushiki Kaisha, priority 2015, dated 2019).

Assays:
Type in all cases: biochemical
[1] = target: T1, human Lck enzyme (Homo sapiens, UniProt P06239); test: Lck enzyme inhibitory activity (time-resolved fluorometry, biotinylated peptide phosphorylation); settings: biotinylated peptide phosphorylation, read-out: LCK_IC50
T1 construct: purchased Carna Biosciences, Inc. 08-170
Method in brief: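 Readout pairs a europium cryptate-labelled anti-phosphotyrosine antibody with XL665-streptavidin, measured by time-resolved fluorescence. IC50 derived from percent inhibition against untreated controls.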

[2] = target: T2, human Src enzyme (Homo sapiens, UniProt P12931); test: Src enzyme inhibitory activity (time-resolved fluorometry, biotinylated peptide phosphorylation); settings: biotinylated peptide phosphorylation, read-out: SRC_IC50
T2 construct: purchased Carna Biosciences, Inc. 08-173
T2 sequence (P12931 whole entry): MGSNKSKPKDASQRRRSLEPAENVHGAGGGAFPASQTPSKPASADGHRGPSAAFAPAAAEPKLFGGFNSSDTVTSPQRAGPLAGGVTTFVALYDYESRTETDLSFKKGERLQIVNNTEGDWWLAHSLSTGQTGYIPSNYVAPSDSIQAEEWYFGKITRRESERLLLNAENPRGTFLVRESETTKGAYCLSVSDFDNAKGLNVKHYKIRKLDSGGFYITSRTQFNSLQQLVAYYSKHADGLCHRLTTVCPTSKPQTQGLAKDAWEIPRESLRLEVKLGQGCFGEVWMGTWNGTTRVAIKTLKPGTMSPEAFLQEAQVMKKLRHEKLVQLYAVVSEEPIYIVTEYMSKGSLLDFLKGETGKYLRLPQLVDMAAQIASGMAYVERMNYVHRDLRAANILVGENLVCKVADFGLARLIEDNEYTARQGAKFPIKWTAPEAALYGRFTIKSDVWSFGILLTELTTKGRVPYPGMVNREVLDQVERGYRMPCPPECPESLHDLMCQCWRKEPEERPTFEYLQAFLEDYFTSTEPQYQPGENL
Method in brief: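 Compounds were tested for blocking tyrosine phosphorylation of a biotinylated peptide substrate by recombinant human Src. Phosphorylated product was quantified by time-resolved fluorometry using europium cryptate and XL665 conjugates, and IC50 was calculated against the compound-free control.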

[3] = target: T3, human Yes1 enzyme (Homo sapiens, UniProt P07947); test: Yes1 enzyme inhibitory activity (time-resolved fluorometry, biotinylated peptide phosphorylation); settings: biotinylated peptide phosphorylation, read-out: YES_IC50
T3 construct: made in house
T3 sequence (P07947 whole entry): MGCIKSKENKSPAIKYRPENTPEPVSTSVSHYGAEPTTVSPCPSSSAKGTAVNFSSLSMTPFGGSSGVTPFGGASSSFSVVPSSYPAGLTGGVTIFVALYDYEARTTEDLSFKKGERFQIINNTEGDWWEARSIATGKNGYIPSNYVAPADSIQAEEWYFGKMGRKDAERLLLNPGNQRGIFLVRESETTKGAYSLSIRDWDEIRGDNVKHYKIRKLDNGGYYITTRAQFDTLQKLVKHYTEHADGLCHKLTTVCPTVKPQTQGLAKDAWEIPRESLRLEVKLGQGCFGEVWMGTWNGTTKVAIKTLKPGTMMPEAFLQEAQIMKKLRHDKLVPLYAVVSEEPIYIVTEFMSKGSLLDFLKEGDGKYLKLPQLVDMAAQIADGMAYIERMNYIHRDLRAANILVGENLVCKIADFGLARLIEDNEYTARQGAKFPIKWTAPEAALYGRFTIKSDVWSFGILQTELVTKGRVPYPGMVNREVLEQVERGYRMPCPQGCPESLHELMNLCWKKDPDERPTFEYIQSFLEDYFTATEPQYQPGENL
Method in brief: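 Inhibition was expressed against a compound-free control to give IC50, using TR-FRET read-out (Eu-cryptate anti-pTyr antibody, streptavidin-XL665).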

T1 sequence (P06239 whole entry): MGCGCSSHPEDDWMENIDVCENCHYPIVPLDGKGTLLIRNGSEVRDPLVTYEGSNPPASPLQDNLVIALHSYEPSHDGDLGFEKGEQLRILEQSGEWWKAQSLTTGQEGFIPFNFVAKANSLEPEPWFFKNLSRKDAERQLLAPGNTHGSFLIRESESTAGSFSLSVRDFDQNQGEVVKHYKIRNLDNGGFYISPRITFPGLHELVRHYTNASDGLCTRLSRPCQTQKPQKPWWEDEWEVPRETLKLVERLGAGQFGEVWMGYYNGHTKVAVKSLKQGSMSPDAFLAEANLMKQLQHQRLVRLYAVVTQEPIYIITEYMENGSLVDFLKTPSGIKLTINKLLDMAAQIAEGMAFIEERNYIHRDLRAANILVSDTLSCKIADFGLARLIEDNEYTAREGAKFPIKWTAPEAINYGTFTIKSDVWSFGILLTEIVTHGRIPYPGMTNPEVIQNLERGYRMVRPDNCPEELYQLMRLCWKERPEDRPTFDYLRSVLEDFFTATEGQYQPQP

SMILES	IC50 [1]	IC50 [2]	IC50 [3]
CC(=O)N1CCC(c2cc3[nH]c(C(=O)c4cnn(-c5cnc(Oc6c(F)cccc6F)cc5C)c4N)cc3cc2OC(F)F)CC1 [Example 4-17-011, 1-[4-[2-[5-amino-1-[6-(2,6-difluorophenoxy)-4-methylpyridin-3-yl]pyrazole-4-carbonyl]-5-(difluoromethoxy)-1H-indol-6-yl]piperidin-1-yl]ethanone]	23 nM	43 nM	13 nM
Cc1cc(Oc2c(F)cccc2F)ncc1-n1ncc(C(=O)c2cc3cc(OC(F)F)c(C4CCN(S(C)(=O)=O)CC4)cc3[nH]2)c1N [Example 4-17-012, [5-amino-1-[6-(2,6-difluorophenoxy)-4-methylpyridin-3-yl]pyrazol-4-yl]-[5-(difluoromethoxy)-6-(1-methylsulfonylpiperidin-4-yl)-1H-indol-2-yl]methanone]	30 nM	45 nM	16 nM
CC(=O)N1CCC(c2cc3[nH]c(C(=O)c4cnn(-c5c(C)cc(Oc6ccccc6F)cc5F)c4N)cc3cc2OCC(F)F)CC1 [Example 4-17-017, 1-[4-[2-[5-amino-1-[2-fluoro-4-(2-fluorophenoxy)-6-methylphenyl]pyrazole-4-carbonyl]-5-(2,2-difluoroethoxy)-1H-indol-6-yl]piperidin-1-yl]ethanone]	5.8 nM	17 nM	2.1 nM
CC(=O)N1CCC(c2cc3[nH]c(C(=O)c4cnn(-c5cnc(Oc6ccccc6F)cc5C)c4N)cc3cc2OCC(F)F)CC1 [Example 4-17-020, 1-[4-[2-[5-amino-1-[6-(2-fluorophenoxy)-4-methylpyridin-3-yl]pyrazole-4-carbonyl]-5-(2,2-difluoroethoxy)-1H-indol-6-yl]piperidin-1-yl]ethanone]	3.3 nM	8.3 nM	0.81 nM
Cc1cc(Oc2c(F)cccc2F)ncc1-n1ncc(C(=O)c2cc3cc(OCC(F)F)c(C4CCN(S(C)(=O)=O)CC4)cc3[nH]2)c1N [Example 4-17-023, [5-amino-1-[6-(2,6-difluorophenoxy)-4-methylpyridin-3-yl]pyrazol-4-yl]-[5-(2,2-difluoroethoxy)-6-(1-methylsulfonylpiperidin-4-yl)-1H-indol-2-yl]methanone]	21 nM	27 nM	6.8 nM
Cc1cc(Oc2c(F)cccc2F)ncc1-n1ncc(C(=O)c2cc3cc(OCC(F)F)c(C4CCN(S(=O)(=O)C5CC5)CC4)cc3[nH]2)c1N [Example 4-17-024, [5-amino-1-[6-(2,6-difluorophenoxy)-4-methylpyridin-3-yl]pyrazol-4-yl]-[6-(1-cyclopropylsulfonylpiperidin-4-yl)-5-(2,2-difluoroethoxy)-1H-indol-2-yl]methanone]	25 nM	40 nM	11 nM
Cc1cc(Oc2c(F)cccc2F)ncc1-n1ncc(C(=O)c2cc3cc(OCC(F)F)c(C4CCN(C(=O)CN)CC4)cc3[nH]2)c1N [Example 4-18-001, 2-amino-1-{4-{2-{5-amino-1-[6-(2,6-difluorophenoxy)-4-methylpyridin-3-yl]pyrazole-4-carbonyl}-5-(2,2-difluoroethoxy)-1H-indol-6-yl}piperidin-1-yl}ethanone]	8.2 nM	24 nM	3.2 nM

Second part, the compound after the results:

IC50 [1]	IC50 [2]	IC50 [3]	SMILES
37 nM	46 nM	17 nM	Cc1cc(Oc2c(F)cccc2F)ncc1-n1ncc(C(=O)c2cc3cc(OC(F)F)c(C4CCN(S(=O)(=O)C5CC5)CC4)cc3[nH]2)c1N [Example 4-17-013, [5-amino-1-[6-(2,6-difluorophenoxy)-4-methylpyridin-3-yl]pyrazol-4-yl]-[6-(1-cyclopropylsulfonylpiperidin-4-yl)-5-(difluoromethoxy)-1H-indol-2-yl]methanone]
13 nM	27 nM	4.5 nM	CC(=O)N1CCC(c2cc3[nH]c(C(=O)c4cnn(-c5ccc(Oc6ccccc6F)cc5C)c4N)cc3cc2OCC(F)F)CC1 [Example 4-17-014, 1-[4-[2-[5-amino-1-[4-(2-fluorophenoxy)-2-methylphenyl]pyrazole-4-carbonyl]-5-(2,2-difluoroethoxy)-1H-indol-6-yl]piperidin-1-yl]ethanone]
14 nM	14 nM	5 nM	Cc1cc(Oc2ccccc2F)ccc1-n1ncc(C(=O)c2cc3cc(OCC(F)F)c(C4CCN(S(C)(=O)=O)CC4)cc3[nH]2)c1N [Example 4-17-015, [5-amino-1-[4-(2-fluorophenoxy)-2-methylphenyl]pyrazol-4-yl]-[5-(2,2-difluoroethoxy)-6-(1-methylsulfonylpiperidin-4-yl)-1H-indol-2-yl]methanone]
12 nM	15 nM	6.4 nM	Cc1cc(Oc2ccccc2F)ccc1-n1ncc(C(=O)c2cc3cc(OCC(F)F)c(C4CCN(S(=O)(=O)C5CC5)CC4)cc3[nH]2)c1N [Example 4-17-016, [5-amino-1-[4-(2-fluorophenoxy)-2-methylphenyl]pyrazol-4-yl]-[6-(1-cyclopropylsulfonylpiperidin-4-yl)-5-(2,2-difluoroethoxy)-1H-indol-2-yl]methanone]
11 nM	19 nM	2.4 nM	Cc1cc(Oc2ccccc2F)cc(F)c1-n1ncc(C(=O)c2cc3cc(OCC(F)F)c(C4CCN(S(C)(=O)=O)CC4)cc3[nH]2)c1N [Example 4-17-018, [5-amino-1-[2-fluoro-4-(2-fluorophenoxy)-6-methylphenyl]pyrazol-4-yl]-[5-(2,2-difluoroethoxy)-6-(1-methylsulfonylpiperidin-4-yl)-1H-indol-2-yl]methanone]
9.1 nM	18 nM	3.2 nM	Cc1cc(Oc2ccccc2F)cc(F)c1-n1ncc(C(=O)c2cc3cc(OCC(F)F)c(C4CCN(S(=O)(=O)C5CC5)CC4)cc3[nH]2)c1N [Example 4-17-019, [5-amino-1-[2-fluoro-4-(2-fluorophenoxy)-6-methylphenyl]pyrazol-4-yl]-[6-(1-cyclopropylsulfonylpiperidin-4-yl)-5-(2,2-difluoroethoxy)-1H-indol-2-yl]methanone]
5.6 nM	9.7 nM	0.76 nM	Cc1cc(Oc2ccccc2F)ncc1-n1ncc(C(=O)c2cc3cc(OCC(F)F)c(C4CCN(S(C)(=O)=O)CC4)cc3[nH]2)c1N [Example 4-17-021, [5-amino-1-[6-(2-fluorophenoxy)-4-methylpyridin-3-yl]pyrazol-4-yl]-[5-(2,2-difluoroethoxy)-6-(1-methylsulfonylpiperidin-4-yl)-1H-indol-2-yl]methanone]
8 nM	14 nM	1.3 nM	Cc1cc(Oc2ccccc2F)ncc1-n1ncc(C(=O)c2cc3cc(OCC(F)F)c(C4CCN(S(=O)(=O)C5CC5)CC4)cc3[nH]2)c1N [Example 4-17-022, [5-amino-1-[6-(2-fluorophenoxy)-4-methylpyridin-3-yl]pyrazol-4-yl]-[6-(1-cyclopropylsulfonylpiperidin-4-yl)-5-(2,2-difluoroethoxy)-1H-indol-2-yl]methanone]
15 nM	29 nM	5.9 nM	Cc1cc(Oc2ccccc2F)ccc1-n1ncc(C(=O)c2cc3cc(OC(F)F)c(C4CCN(C(=O)CN)CC4)cc3[nH]2)c1N [Example 4-18-002, 2-amino-1-[4-[2-[5-amino-1-[4-(2-fluorophenoxy)-2-methylphenyl]pyrazole-4-carbonyl]-5-(difluoromethoxy)-1H-indol-6-yl]piperidin-1-yl]ethanone]
